Data published in ChEMBL document CHEMBL5120927, “LEGO-Lipophosphonoxins: A Novel Approach in Designing Membrane Targeting Antimicrobials” (J Med Chem, 2022).

Key:
[1] = test system: Enterococcus faecalis; assay: Antibacterial activity against Enterococcus faecalis ATCC 29212 = CCM 4224 assessed as inhibition of bacterial growth incubated for 24 hrs by microdilution assay; type: functional
[2] = test system: Staphylococcus aureus; assay: Antibacterial activity against Staphylococcus aureus ATCC 29213 = CCM 4223 assessed as inhibition of bacterial growth incubated for 24 hrs by microdilution assay; type: functional
[3] = test system: Staphylococcus aureus; assay: Antibacterial activity against Staphylococcus aureus ATCC 29213 = CCM 4223 assessed as inhibition of bacterial growth incubated for 24 hrs in presence of BSA by microdilution assay; type: functional
[4] = test system: Escherichia coli; assay: Antibacterial activity against Escherichia coli ATCC 25922 = CCM 3954 assessed as inhibition of bacterial growth incubated for 24 hrs by microdilution assay; type: functional
[5] = test system: Escherichia coli; assay: Antibacterial activity against Escherichia coli ATCC 25922 = CCM 3954 assessed as inhibition of bacterial growth incubated for 24 hrs in presence of BSA by microdilution assay; type: functional
[6] = test system: Pseudomonas aeruginosa; assay: Antibacterial activity against Pseudomonas aeruginosa ATCC 27853 = CCM 3955 assessed as inhibition of bacterial growth incubated for 24 hrs by microdilution assay; type: functional
[7] = Hemolytic activity in human RBC assessed as haemoglobin release measured after 3 hr; type: toxicity, cell-based, Erythrocyte; settings: red blood cells (erythrocytes)
[8] = Gradient chromatographic hydrophobicity index of the compound at pH 3.7 by HPLC analysis; type: ADME
[9] = test system: Staphylococcus epidermidis; assay: Antibacterial activity against Staphylococcus epidermidis CCM 7221 assessed as inhibition of bacterial growth incubated for 24 hrs by microdilution assay; type: functional
[10] = test system: Staphylococcus aureus; assay: Antibacterial activity against methicillin resistant Staphylococcus aureus 4591/A assessed as reduction in microbial growth incubated for 24 hrs by microdilution assay; type: functional
[11] = test system: Escherichia coli; assay: Antibacterial activity against multidrug-resistant Escherichia coli CE5556 expressing CTX-M-15 assessed as reduction in microbial growth incubated for 24 hrs by microdilution assay; type: functional
[12] = test system: Enterococcus faecium; assay: Antibacterial activity against vancomycin resistant Enterococcus faecium 419/ANA assessed as reduction in microbial growth incubated for 24 hrs by microdilution assay; type: functional
[13] = test system: Pseudomonas aeruginosa; assay: Antibacterial activity against multidrug-resistant Pseudomonas aeruginosa assessed as reduction in microbial growth incubated for 24 hrs by microdilution assay; type: functional

Row | Compound | MIC [1] [µg/mL] | MIC [2] [µg/mL] | MIC [3] [µg/mL] | MIC [4] [µg/mL] | MIC [5] [µg/mL] | MIC [6] [µg/mL] | HC50 at 3 h [7] [µg/mL] | CHI [8] | MIC [9] [µg/mL] | MIC [10] [µg/mL] | MIC [11] [µg/mL] | MIC [12] [µg/mL] | MIC [13] [µg/mL]
1 | CC/C=C\CCCOP(=O)(CCN(CCCN)CCCN)OCCCCCOP(=O)(CCN(CCCN)CCCN)OCCC/C=C\CC.Cl.Cl.Cl.Cl.Cl.Cl (configuration not stated) | > 128 | 16 | 64 | 128 | > 128 | > 128 | > 200 | 27.7 | 8 | 32 | > 128 | > 128 | > 128
2 | CCCC/C=C\CCOP(=O)(CCN(CCCN)CCCN)OCCCOP(=O)(CCN(CCCN)CCCN)OCC/C=C\CCCC.Cl.Cl.Cl.Cl.Cl.Cl (configuration not stated) | 128 | 16 | 32 | 128 | 128 | 64 | > 200 | 31.3 | 8 | 16 | 128 | > 128 | 128
3 | Cl.Cl.Cl.Cl.Cl.Cl.NCCCN(CCCN)CCP(=O)(OCCCCCCCCOP(=O)(CCN(CCCN)CCCN)OCCc1ccccc1)OCCc1ccccc1 (configuration not stated) | 128 | 16 | 32 | 128 | 128 | 128 | > 200 | 27.3 | 8 | 16 | 128 | 128 | 128
4 | Cl.Cl.Cl.Cl.Cl.Cl.N=C(N)NCCCN(CCCNC(=N)N)CCP(=O)(OCCCCCOP(=O)(CCN(CCCNC(=N)N)CCCNC(=N)N)OCC12CC3CC(CC(C3)C1)C2)OCC12CC3CC(CC(C3)C1)C2 (configuration not stated) | 4 | 1 | 0.5 | 1 | 2 | 8 | 259 | 333 | 0.5 | 1 | 1 | 8 | 8
5 | CCCCCCCOP(=O)(CCN(CCCN)CCCN)OCCCCOP(=O)(CCN(CCCN)CCCN)OCCCCCCC.Cl.Cl.Cl.Cl.Cl.Cl (configuration not stated) | 64 | 4 | 8 | 8 | 32 | 128 | > 200 | 30.7 | 2 | 4 | 64 | > 128 | 128
6 | CC/C=C\CCCOP(=O)(CCN(CCCN)CCCN)OCCCCCCOP(=O)(CCN(CCCN)CCCN)OCCC/C=C\CC.Cl.Cl.Cl.Cl.Cl.Cl (configuration not stated) | 128 | 8 | 16 | 64 | 128 | > 128 | > 200 | 2.4 | 4 | 16 | 64 | > 128 | > 128
7 | CCCCOP(=O)(CCN(CCCN)CCCN)OCCCCCCCCCCOP(=O)(CCN(CCCN)CCCN)OCCCC.Cl.Cl.Cl.Cl.Cl.Cl (configuration not stated) | 128 | 16 | 16 | > 128 | > 128 | > 128 | > 500 | 27.3 | 4 | 8 | > 128 | > 128 | > 128
8 | CC(C)COP(=O)(CCN(CCCN)CCCN)OCCCCCCCCCCOP(=O)(CCN(CCCN)CCCN)OCC(C)C.Cl.Cl.Cl.Cl.Cl.Cl (configuration not stated) | 64 | 32 | 16 | > 128 | > 128 | 128 | > 500 | 35 | 8 | 16 | 128 | 128 | 64
9 | Cl.Cl.Cl.Cl.Cl.Cl.NCCN(CCN)CCP(=O)(OCCCCCCOP(=O)(CCN(CCN)CCN)OCCc1ccccc1)OCCc1ccccc1 (configuration not stated) | > 128 | 32 | 128 | > 128 | > 128 | > 128 | > 200 | 30.9 | 16 | 64 | > 128 | > 128 | > 128
